In the assay the target is Na(+)/dicarboxylate cotransporter 3 (Homo sapiens) (UniProt Q8WWT9). The experiment in a line: SLC13A3 dicarboxylate substrate-evoked depolarization, dose response, membrane potential dye, HEK-293 overexpressing cells (AID 1794820). The note with it: HEK-293 SLC13A3 OE, FLIPR membrane potential dye.
Chain of Na(+)/dicarboxylate cotransporter 3 (Homo sapiens) (Q8WWT9 whole entry, looked up): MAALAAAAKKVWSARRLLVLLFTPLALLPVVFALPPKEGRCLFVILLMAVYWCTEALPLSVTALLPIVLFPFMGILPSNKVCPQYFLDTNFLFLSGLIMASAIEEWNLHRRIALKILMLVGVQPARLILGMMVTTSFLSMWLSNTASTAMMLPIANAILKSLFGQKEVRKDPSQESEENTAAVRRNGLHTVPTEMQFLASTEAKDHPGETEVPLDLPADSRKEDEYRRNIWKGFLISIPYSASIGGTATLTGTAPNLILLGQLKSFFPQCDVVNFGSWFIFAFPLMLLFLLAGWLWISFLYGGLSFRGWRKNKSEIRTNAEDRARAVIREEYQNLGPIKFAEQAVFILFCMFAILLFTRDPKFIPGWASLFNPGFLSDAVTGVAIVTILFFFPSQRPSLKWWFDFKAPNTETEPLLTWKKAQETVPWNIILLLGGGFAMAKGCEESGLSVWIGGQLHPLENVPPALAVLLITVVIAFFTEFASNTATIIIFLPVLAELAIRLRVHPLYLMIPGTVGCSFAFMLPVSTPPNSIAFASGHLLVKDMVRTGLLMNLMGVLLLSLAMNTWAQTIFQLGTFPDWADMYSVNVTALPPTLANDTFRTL

As for `O=C(O)CCC(=O)C(=O)O`, the EC50 (usually the midpoint of the concentration-response curve) is 54 µM. To `O=C(O)CCC(=O)O` belongs 107 µM.

For the origin of these results see PubChem BioAssay AID1794820.
